The source of these data is publication PMC7236083 (Hormones & cancer, 2020).

Assay [1] concerns the target T1, glucocorticoid receptor (GR) (Homo sapiens, UniProt P04150).
T1 sequence (P04150 1-777): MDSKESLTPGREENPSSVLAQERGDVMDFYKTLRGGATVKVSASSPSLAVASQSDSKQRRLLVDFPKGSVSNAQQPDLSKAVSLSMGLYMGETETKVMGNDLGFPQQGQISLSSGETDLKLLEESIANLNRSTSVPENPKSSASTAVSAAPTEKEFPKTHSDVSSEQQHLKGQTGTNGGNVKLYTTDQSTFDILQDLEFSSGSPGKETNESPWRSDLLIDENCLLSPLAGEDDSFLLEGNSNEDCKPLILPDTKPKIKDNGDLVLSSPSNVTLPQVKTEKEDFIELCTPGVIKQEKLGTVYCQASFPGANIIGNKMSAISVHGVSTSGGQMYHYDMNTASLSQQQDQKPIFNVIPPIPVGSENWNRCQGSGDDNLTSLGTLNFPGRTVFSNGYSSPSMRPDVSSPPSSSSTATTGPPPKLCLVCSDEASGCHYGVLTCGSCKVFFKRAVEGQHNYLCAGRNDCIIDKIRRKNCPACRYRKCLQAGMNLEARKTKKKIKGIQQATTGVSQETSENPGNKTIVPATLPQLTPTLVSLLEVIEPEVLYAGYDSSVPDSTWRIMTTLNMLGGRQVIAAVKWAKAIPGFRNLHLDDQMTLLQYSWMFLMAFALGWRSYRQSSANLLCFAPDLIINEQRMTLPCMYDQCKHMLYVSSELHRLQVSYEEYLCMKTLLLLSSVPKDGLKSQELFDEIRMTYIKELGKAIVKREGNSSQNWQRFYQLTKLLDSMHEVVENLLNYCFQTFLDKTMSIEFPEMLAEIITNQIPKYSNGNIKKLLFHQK
The assay is described as follows: fluorescence polarization competitive binding assay. For orientation: In fluorescence polarisation assays a small probe gives low polarisation when free and higher when bound to something large.

Assay [2] addresses T2, progesterone receptor (PR) (Homo sapiens, UniProt P06401).
T2 sequence (P06401 675-933): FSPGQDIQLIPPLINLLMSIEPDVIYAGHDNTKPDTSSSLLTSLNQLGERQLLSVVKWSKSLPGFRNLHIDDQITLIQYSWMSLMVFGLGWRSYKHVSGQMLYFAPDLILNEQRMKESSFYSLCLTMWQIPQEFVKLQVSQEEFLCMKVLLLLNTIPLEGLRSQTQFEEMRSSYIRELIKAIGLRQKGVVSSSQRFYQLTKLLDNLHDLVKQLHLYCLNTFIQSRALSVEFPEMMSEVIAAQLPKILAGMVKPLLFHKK
Described as above.

What is called IC50 is the concentration that gives 50% inhibition. Higher therefore signals lower potency. For the molecule `O=c1cc(-c2ccccc2)oc2cc(O)c(O)c(O)c12` [baicalein], the IC50 in assay [1] was 19.3 µM; in assay [2], 15.3 µM.
